For assay [1], the target named is T1, PvBSAS4;1 (beta-substituted alanine synthase 4;1, cytosolic cysteine synthase) (Phaseolus vulgaris, UniProt V7BIJ9).
T1 construct: gene PHAVU_007G185200g
Nature of the assay: acid-ninhydrin colorimetric assay of cysteine formation, […] nm. The class given is biochemical.

In assay [2] the target is T1, PvBSAS4;1 (beta-substituted alanine synthase 4;1, cytosolic cysteine synthase). Nature of the assay: acid-ninhydrin colorimetric assay, Lineweaver-Burk plot. The following applies: 2 to 8 mM O-acetylserine, 1.5 mM sodium sulfide, 100 mM MOPSO pH 7.0, 25 °C; apparent values plotted against benzoic acid concentration. Type of assay: biochemical.
Assay [3] has the same target. Nature of the assay: X-ray crystal structure, […] Å. Type of assay: binding.

Molecules are shown by their SMILES. pIC50: −log10 of the molar value.

Usually pIC50 stands for −log10 of the IC50, conventionally taken in molar units.

T1 sequence (V7BIJ9 entry or part of it): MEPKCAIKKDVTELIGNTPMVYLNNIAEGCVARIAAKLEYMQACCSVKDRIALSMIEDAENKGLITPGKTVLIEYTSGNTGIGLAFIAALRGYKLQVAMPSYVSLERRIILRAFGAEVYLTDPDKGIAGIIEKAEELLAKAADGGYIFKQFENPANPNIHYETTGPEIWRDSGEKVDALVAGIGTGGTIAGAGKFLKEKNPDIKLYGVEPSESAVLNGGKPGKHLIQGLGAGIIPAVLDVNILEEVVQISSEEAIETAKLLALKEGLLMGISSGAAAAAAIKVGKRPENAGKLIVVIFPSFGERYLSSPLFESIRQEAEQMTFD

Consider `O=C(O)c1ccccc1O` [salicylic acid], for which the negative-log IC50 (pIC50) in assay [1] was 3.22.

Take `CC(=O)OC[C@H](N)C(=O)O` [OAS, O-acetylserine]: in assay [2], the Ks app result is on record as “the replot of Ks app versus the concentration of inhibitor”.

For the compound `Cc1ncc(COP(=O)(O)O)c(C=O)c1O` [PLP, pyridoxal 5′-phosphate], the “X-ray crystal structure, 1.60 Å” value in assay [3] (covalent internal aldimine with Lys48, co-purified) is reported as “PLP is stabilized by a covalent bond to Lys48, creating an internal aldimine”.

Consider `O=C(O)c1ccccc1` [BEZ, benzoic acid], for which, in assay [3] (co-purified from E. coli, active site, near PLP (internal aldimine), carboxylate bound by Thr76, Ser77, Asn79, Thr80, Gln150), the “X-ray crystal structure, 1.60 Å” value was “contains the PLP prosthetic group and a molecule of benzoic acid (Fig. 3A)”. The compound also gave a negative logarithm of the IC50 (pIC50) in assay [1] of approximately 3.22.
